Values of other authors in patent US20090010894A1, “METHODS AND SYSTEMS FOR IDENTIFYING COMPOUNDS THAT MODULATE ALPHA-SYNUCLEIN AGGREGATION” (The parkinson's Institute, priority 2005, published 2009).

Columns and labels:
[1] = test system: transgenic C. elegans expressing A53T, E46K, or A30P human α-synuclein; conditions: exogenous dopamine; transgenic worms expressing mutant human α-synuclein
α-synuclein = α-synuclein (Homo sapiens, UniProt P37840); conditions: aggregated α-synuclein contacted with agent in vitro

Row | promotes disaggregation of α-synuclein (α-synuclein) | SMILES | reversal of failure in food-sensing behavior [1]
1 | – | NCCc1ccc(O)c(O)c1 [dopamine] | reversed these effects
2 | shown to have such an effect | CO[C@H]1/C=C/O[C@@]2(C)Oc3c(C)c(O)c4c(O)c(c(/C=N/N5CCN(C)CC5)c(O)c4c3C2=O)NC(=O)/C(C)=C\C=C\[C@H](C)[C@H](O)[C@@H](C)[C@@H](O)[C@@H](C)[C@H](OC(C)=O)[C@@H]1C [rifampin] | –
3 | shown to have such an effect | CO[C@H]1/C=C/O[C@@]2(C)Oc3c(C)c(O)c4c(O)c(cc(O)c4c3C2=O)NC(=O)/C(C)=C\C=C\[C@H](C)[C@H](O)[C@@H](C)[C@@H](O)[C@@H](C)[C@H](OC(C)=O)[C@@H]1C [rifamycin] | –
